Experimental data: PubChem BioAssay AID1963825 (Molecular Pharmacology Branch, DTP, NCI, 2024)
pIC50: −log10 of the molar value. Values joined by “and” are separate entries in the source; they are usually repeats but may differ in a detail not shown here. Identical values can stand only once.

Assay: Anticancer human tumor 997537-175-T-J1-PDC patient-derived colon adenocarcinoma cell line growth inhibition [POLQ]
Conditions: 997537-175-T-J1-PDC complex spheroid viability, combination with POLQ inhibitors; for viability, T/C: stronger effect = lower value
Description: Multicellular complex tumor spheroid response to Polymerase (POL) inhibitors (novobiocin, ART-558, RP6685) in combination with a variety of drugs and investigational agents in selected tumor cell lines
The POL inhibitors (novobiocin, ART-558, and RP6685) were evaluated both individually and in combination with standard of care and investigational anticancer small molecules within a complex spheroid model of solid tumors. . Complex spheroids include a stromal component modeled by human endothelial cells (HUVEC) and fibroblasts modeled by human mesenchymal stem cells (MSCs). The concentration ranges selected for each drug and investigational agent were based upon clinically achievable concentrations if the clinical Cmax of the agent was known.
Compounds. The drugs and investigational agents: novobiocin (NSC847541), ART-558 (NSC835418), RP-6685 (NSC848927), peposertib (NSC802822), ceralasertib (NSC780249), elimusertib (NSC800525), camonsertib (NSC841442), AZD-1390 (NSC803789), olaparib (NSC753686), talazoparib (NSC767125), rucaparib (NSC756644), sotorasib (NSC818433), MRTX-1133 (NSC836407), SN-38 (NSC673596), topotecan (NSC609699), epotoside (NSC141540), doxorubicin (NSC123127), gemcitabine (NSC613327), 5-fluorouracil (NSC19893), paclitaxel (NSC125973), vemurafenib (NSC761431), MSA-2 (NSC828583), SN-011 (NSC837082), adavosertib (NSC754352), prexasertib (NSC758257), carboplatin (NSC241240) and oxaliplatin (NSC266046), were obtained from the National Cancer Institute (NCI) Developmental Therapeutics Program Chemical Repository (21). The FDA-approved anticancer drug set is available from the Developmental Therapeutics Program at https://dtp.cancer.gov/organization/dscb/obtaining/. […] The stock solutions were prepared in dimethyl sulfoxide (DMSO, Sigma-Aldrich, St. Louis, MO, cat. D2650), except for the platinum compounds which were prepared in saline (Quality Biological, Gaithersburg, MD, cat. 114-055-101), at 800-fold the tested concentration and stored at -70 degrees C prior to their use. All drugs and investigational agents were tested over a range starting from a high concentration at or near the clinical Cmax and decreasing in half-log increments. If the clinical Cmax for an agent had not been determined, the highest concentration tested was 10 microM, except for SN-38, which was tested at a high concentration of 1 microM.
Cell Culture. All cells were maintained in an incubator at 37 degrees C and 5% CO2 with 95% humidity. The PDC lines were cultured according to standard operating procedures established by the NCI PDMR (https://pdmr.cancer.gov). Table 3 of the manuscript, lists the cell lines along with the number of the three cell types plated to form the mct-spheroids and media for tumor cell growth. After thawing, all PDC lines, except 997537-175-T-J1-PDC and 415267-285-R-J2-PDC, were cultured in Matrigel-coated flasks prepared with a working solution of 1X Ham's F-12 nutrient mix, without supplementation (Thermo Fisher Scientific, cat. 11765054), 100 U/mL penicillin-streptomycin (Thermo Fisher Scientific, cat. 15140122), and 2.5% Matrigel (Corning Inc., Corning, NY, cat. 354248) for the first three passages. The two PDC lines 997537-175-T-J1-PDC and 415267-285-R-J2-PDC were cultured on uncoated flasks. The 857933-349-R-J2-PDC line was cultured in 6C/Colon 1B media containing advanced DMEM/F-12 (Thermo Fisher Scientific, cat. 12634028), 10 mM HEPES (Thermo Fisher Scientific, cat. 15630080), 1X GlutaMAX supplement (Thermo Fisher Scientific, cat. 35050061), 0.1 mg/mL primocin (InvivoGen, San Diego, CA, cat. ant-pm-2), 10% defined fetal bovine serum, heat inactivated (HyClone Laboratories Inc., Logan, UT, cat. SH30070.03HI), 50% L-WRN conditioned media (ATCC, cat. CRL-3276), 1.25 mM N-Acetyl-L-cysteine (Sigma-Aldrich, cat. A9165), 10 mM nicotinamide (Sigma-Aldrich, cat. N0636), 1X B-27 supplement (Thermo Fisher Scientific, cat. 17504044), 1X N-2 supplement (Thermo Fisher Scientific, cat. […]

[1] = curve of first compound, second compound 0.0316 µM
[2] = curve of first compound, second compound 0.1 µM
[3] = curve of first compound, second compound 0.316 µM
[4] = curve of first compound, second compound 1 µM
[5] = curve of first compound, second compound 3.16 µM
[6] = curve of first compound, second compound 10 µM
[7] = second compound 0.0316 µM, first compound 0.0316 µM
[8] = second compound 0.0316 µM, first compound 0.1 µM
[9] = second compound 0.0316 µM, first compound 0.316 µM
[10] = second compound 0.0316 µM, first compound 1 µM
[11] = second compound 0.0316 µM, first compound 3.16 µM
[12] = second compound 0.0316 µM, first compound 10 µM
[13] = second compound 0.1 µM, first compound 0.0316 µM
[14] = second compound 0.1 µM, first compound 0.1 µM
[15] = second compound 0.1 µM, first compound 0.316 µM
[16] = second compound 0.1 µM, first compound 1 µM
[17] = second compound 0.1 µM, first compound 3.16 µM
[18] = second compound 0.1 µM, first compound 10 µM
[19] = second compound 0.316 µM, first compound 0.0316 µM
[20] = second compound 0.316 µM, first compound 0.1 µM
[21] = second compound 0.316 µM, first compound 0.316 µM
[22] = second compound 0.316 µM, first compound 1 µM
[23] = second compound 0.316 µM, first compound 3.16 µM
[24] = second compound 0.316 µM, first compound 10 µM
[25] = second compound 1 µM, first compound 0.0316 µM
[26] = second compound 1 µM, first compound 0.1 µM
[27] = second compound 1 µM, first compound 0.316 µM
[28] = second compound 1 µM, first compound 1 µM
[29] = second compound 1 µM, first compound 3.16 µM
[30] = second compound 1 µM, first compound 10 µM
[31] = second compound 3.16 µM, first compound 0.0316 µM
[32] = second compound 3.16 µM, first compound 0.1 µM
[33] = second compound 3.16 µM, first compound 0.316 µM
[34] = second compound 3.16 µM, first compound 1 µM
[35] = second compound 3.16 µM, first compound 3.16 µM
[36] = second compound 3.16 µM, first compound 10 µM
[37] = second compound 10 µM, first compound 0.0316 µM
[38] = second compound 10 µM, first compound 0.1 µM
[39] = second compound 10 µM, first compound 0.316 µM
[40] = second compound 10 µM, first compound 1 µM
[41] = second compound 10 µM, first compound 3.16 µM
[42] = second compound 10 µM, first compound 10 µM
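Note: luminescence signal used as a surrogate for viable cells; spheroids exposed to drugs for seven days before readout.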

## CC1COCCN1c1cc(-c2ccnn2C)c2ccnc(-c3ccn[nH]3)c2n1 (stereo unspecified) + Nc1ccc(C#CCN(C(=O)Cc2ncc(C(F)(F)F)cc2C(F)(F)F)c2ccc(F)cc2)nn1
[1]
  pIC50: < 5.00
[2]
  pIC50: 5.50
[3]
  pIC50: < 5.00
[4]
  pIC50: < 5.00
[5]
  pIC50: 5.50
[6]
  pIC50: 6.52
[7]
  viability, T/C: 103%
[8]
  viability, T/C: 83.6%
[9]
  viability, T/C: 58.3%
[10]
  viability, T/C: 49.4%
[11]
  viability, T/C: 36.8%
[12]
  viability, T/C: 71.6%
[13]
  viability, T/C: 101%
[14]
  viability, T/C: 92.2%
[15]
  viability, T/C: 38.2%
[16]
  viability, T/C: 49.5%
[17]
  viability, T/C: 48.3%
[18]
  viability, T/C: 69.6%
[19]
  viability, T/C: 99.1%
[20]
  viability, T/C: 90.6%
[21]
  viability, T/C: 51.4%
[22]
  viability, T/C: 42.5%
[23]
  viability, T/C: 52%
[24]
  viability, T/C: 65.8%
[25]
  viability, T/C: 93.1%
[26]
  viability, T/C: 76.1%
[27]
  viability, T/C: 39.4%
[28]
  viability, T/C: 75.2%
[29]
  viability, T/C: 50%
[30]
  viability, T/C: 53.4%
[31]
  viability, T/C: 99.2%
[32]
  viability, T/C: 84.3%
[33]
  viability, T/C: 36%
[34]
  viability, T/C: 28.6%
[35]
  viability, T/C: 52.5%
[36]
  viability, T/C: 82%
[37]
  viability, T/C: 83.5%
[38]
  viability, T/C: 75.3%
[39]
  viability, T/C: 39.2%
[40]
  viability, T/C: 32.5%
[41]
  viability, T/C: 57.5%
[42]
  viability, T/C: 67.5%

## CCc1c2c(nc3ccc(O)cc13)-c1cc3c(c(=O)n1C2)COC(=O)[C@]3(O)CC
Compound 0.00316 µM
  viability, T/C: 68.9% and 81% and 97.3%
Compound 0.01 µM
  viability, T/C: 63.4% and 64.7% and 67%
Compound 0.0316 µM
  viability, T/C: 35.3% and 40.2% and 35.2%
Compound 0.1 µM
  viability, T/C: 19.1% and 17.6% and 15.7%
Compound 0.316 µM
  viability, T/C: 5.98% and 6.37% and 8.27%
Compound 1 µM
  viability, T/C: 5.57% and 4.62% and 6.01%
Curve of compound
  pIC50: 7.76 and 7.70 and 7.74

## C=CC(=O)N1CCN(c2nc(=O)n(-c3c(C)ccnc3C(C)C)c3nc(-c4c(O)cccc4F)c(F)cc23)C(C)C1 (stereo unspecified) + Cc1cccc(N(C)C(=O)C2C(O)CCN2c2nc(C)cc(C(F)(F)F)c2C#N)c1
[1]
  pIC50: < 5.00
[2]
  pIC50: < 5.00
[3]
  pIC50: < 5.00
[4]
  pIC50: < 5.00
[5]
  pIC50: < 5.00
[6]
  pIC50: < 5.00
[7]
  viability, T/C: 98.6%
[8]
  viability, T/C: 96.7%
[9]
  viability, T/C: 102%
[10]
  viability, T/C: 106%
[11]
  viability, T/C: 96.3%
[12]
  viability, T/C: 103%
[13]
  viability, T/C: 104%
[14]
  viability, T/C: 114%
[15]
  viability, T/C: 92.2%
[16]
  viability, T/C: 106%
[17]
  viability, T/C: 96%
[18]
  viability, T/C: 94.3%
[19]
  viability, T/C: 101%
[20]
  viability, T/C: 113%
[21]
  viability, T/C: 108%
[22]
  viability, T/C: 99.5%
[23]
  viability, T/C: 102%
[24]
  viability, T/C: 104%
[25]
  viability, T/C: 105%
[26]
  viability, T/C: 108%
[27]
  viability, T/C: 111%
[28]
  viability, T/C: 108%
[29]
  viability, T/C: 105%
[30]
  viability, T/C: 82.2%
[31]
  viability, T/C: 103%
[32]
  viability, T/C: 99.3%
[33]
  viability, T/C: 98.6%
[34]
  viability, T/C: 98.7%
[35]
  viability, T/C: 93.9%
[36]
  viability, T/C: 99.3%
[37]
  viability, T/C: 102%
[38]
  viability, T/C: 121%
[39]
  viability, T/C: 94.8%
[40]
  viability, T/C: 96.1%
[41]
  viability, T/C: 79.8%
[42]
  viability, T/C: 93.1%
